Experimental data reported in ChEMBL document CHEMBL1201862, “PubChem BioAssay data set” (2004).
Calls of active or inactive are those of the source.

Columns and labels:
A549 = test: A549 cell toxicity, dose response, cytotoxicity control, plate reader, cherry-pick samples (AID 687028); assay type: functional, cell-based; conditions: Homo sapiens
[1] = LGR2 antagonists, dose response, cell-based, HEK293, CRE-luciferase reporter, cherry pick (AID 743342); assay type: functional
[2] = MC4R antagonists, dose response, counter-screen for LGR2 antagonist project, cell-based, plate reader, cherry pick (AID 743444); assay type: functional;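 also: transfected HEK 293 cells stimulated with alpha-MSH peptide; potency of inhibitors of the alpha-MSH evoked signal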
[3] = inhibitors of intracellular T. cruzi replication, confirmation, NIH3T3 host cells, beta-gal luminescence (AID 2044); assay type: functional, cell-based;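 also: intracellular parasites grown in NIH/3T3 mouse fibroblasts as host cells; luminescent beta-galactosidase reporter signal from transgenic T. cruzi replicating inside host cells; inhibitors lower the luminescence signal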
[4] = MDA-MB-231 cell growth inhibition, dose response, cytotoxicity control for RAD54 inhibitor project, CellTiter-Glo luminescence, cherry-pick (AID 651692); assay type: functional, cell-based
[5] = molecular target: T1, DNA repair and recombination protein RAD54-like (Homo sapiens, UniProt Q92698); test: inhibitors of human RAD54 branch migration, confirmation, biochemical, fluorescence, cherry-picked samples, dose series (AID 651657); assay type: functional
T1 sequence (Q92698 whole entry): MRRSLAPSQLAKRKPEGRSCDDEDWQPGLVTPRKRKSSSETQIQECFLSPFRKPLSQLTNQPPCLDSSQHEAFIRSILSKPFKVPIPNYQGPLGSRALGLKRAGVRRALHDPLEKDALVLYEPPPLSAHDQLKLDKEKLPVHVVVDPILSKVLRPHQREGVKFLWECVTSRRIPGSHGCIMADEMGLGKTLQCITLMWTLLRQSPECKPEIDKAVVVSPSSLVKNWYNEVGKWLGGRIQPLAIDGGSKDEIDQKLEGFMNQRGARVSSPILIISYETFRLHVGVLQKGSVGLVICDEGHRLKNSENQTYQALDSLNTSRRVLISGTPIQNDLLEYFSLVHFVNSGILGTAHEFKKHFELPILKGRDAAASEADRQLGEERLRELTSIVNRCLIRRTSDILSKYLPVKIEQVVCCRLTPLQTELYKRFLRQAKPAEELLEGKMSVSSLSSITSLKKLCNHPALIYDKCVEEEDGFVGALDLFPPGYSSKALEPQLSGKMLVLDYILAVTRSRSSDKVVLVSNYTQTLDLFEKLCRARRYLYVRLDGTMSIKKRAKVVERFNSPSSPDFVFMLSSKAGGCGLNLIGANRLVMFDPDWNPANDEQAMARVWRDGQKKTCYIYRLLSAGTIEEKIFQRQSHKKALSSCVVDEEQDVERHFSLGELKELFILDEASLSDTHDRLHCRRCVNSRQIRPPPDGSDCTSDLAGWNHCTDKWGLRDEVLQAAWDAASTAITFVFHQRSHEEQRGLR

[6] = growth suppression of beta-catenin-knockout colon cells, dose response, cell-based, HCT116, human colon tumor (AID 1045); assay type: functional;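 also: HCT116 colon tumor cells with beta catenin knocked out; cells exposed to compound for 60 hours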
[7] = cytotoxicity toward NIH3T3 fibroblasts, dose response, counter-screen, cell-based, ATP luminescence, mouse fibroblasts (AID 2010); assay type: functional;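 also: cells exposed to compound for about 90 hours before reading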
[8] = DNA binding of candidate compounds, dose response, artefact control for RAD54 inhibitor project, biochemical, fluorescence polarization, cherry-pick (AID 651673); assay type: functional
[9] = growth suppression of PTEN-null colon cells, dose response, cell-based, HCT116 PTEN knockout (AID 1047); assay type: functional;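 also: HCT116 colon tumor cells with PTEN knocked out; cells exposed to compound for 60 hours before readout; potency for loss of cell viability measured by luminescence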
[10] = molecular target: T2, Trace amine-associated receptor 1 (Homo sapiens, UniProt Q96RJ0); test: Fluorescence-based cell-based high throughput dose response assay to identify agonists of the human trace amine associated receptor 1 (TAAR1).; assay type: functional
T2 sequence (Q96RJ0 whole entry): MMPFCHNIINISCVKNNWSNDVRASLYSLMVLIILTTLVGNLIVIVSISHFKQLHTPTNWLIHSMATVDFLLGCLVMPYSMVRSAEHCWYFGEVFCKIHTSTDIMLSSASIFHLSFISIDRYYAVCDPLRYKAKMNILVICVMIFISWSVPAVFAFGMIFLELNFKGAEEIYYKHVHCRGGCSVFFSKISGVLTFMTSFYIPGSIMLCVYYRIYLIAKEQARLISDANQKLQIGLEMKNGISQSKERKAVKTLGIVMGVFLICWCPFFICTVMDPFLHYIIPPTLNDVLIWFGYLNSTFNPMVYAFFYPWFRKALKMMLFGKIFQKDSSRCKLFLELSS

cells [11] = assay type: functional, cell-based
cells [12] = assay type: functional, cell-based; remark: listed apart in the source
[13] = molecular target: T2, Trace amine-associated receptor 1; test: Counterscreen for agonists of the human trace amine associated receptor 1 (hTAAR1): Fluorescence-based cell-based high throughput dose response assay to identify hTAAR1 agonist that also desensitize TAAR1 receptor response.; assay type: functional
[14] = molecular target: T3, ATP-dependent translocase ABCB1 (Homo sapiens, UniProt P08183); test: ABCG2 efflux pump inhibitor potency, dose response, Ig-MXP3 cells, JC-1, flow cytometry, set 2 (AID 504566); assay type: functional; conditions: read-out: EC50_MICROM_;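 also: flow cytometry median green fluorescence of retained JC-1 dye; potency of efflux pump inhibition measured as rising substrate retention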
T3 sequence (P08183 whole entry): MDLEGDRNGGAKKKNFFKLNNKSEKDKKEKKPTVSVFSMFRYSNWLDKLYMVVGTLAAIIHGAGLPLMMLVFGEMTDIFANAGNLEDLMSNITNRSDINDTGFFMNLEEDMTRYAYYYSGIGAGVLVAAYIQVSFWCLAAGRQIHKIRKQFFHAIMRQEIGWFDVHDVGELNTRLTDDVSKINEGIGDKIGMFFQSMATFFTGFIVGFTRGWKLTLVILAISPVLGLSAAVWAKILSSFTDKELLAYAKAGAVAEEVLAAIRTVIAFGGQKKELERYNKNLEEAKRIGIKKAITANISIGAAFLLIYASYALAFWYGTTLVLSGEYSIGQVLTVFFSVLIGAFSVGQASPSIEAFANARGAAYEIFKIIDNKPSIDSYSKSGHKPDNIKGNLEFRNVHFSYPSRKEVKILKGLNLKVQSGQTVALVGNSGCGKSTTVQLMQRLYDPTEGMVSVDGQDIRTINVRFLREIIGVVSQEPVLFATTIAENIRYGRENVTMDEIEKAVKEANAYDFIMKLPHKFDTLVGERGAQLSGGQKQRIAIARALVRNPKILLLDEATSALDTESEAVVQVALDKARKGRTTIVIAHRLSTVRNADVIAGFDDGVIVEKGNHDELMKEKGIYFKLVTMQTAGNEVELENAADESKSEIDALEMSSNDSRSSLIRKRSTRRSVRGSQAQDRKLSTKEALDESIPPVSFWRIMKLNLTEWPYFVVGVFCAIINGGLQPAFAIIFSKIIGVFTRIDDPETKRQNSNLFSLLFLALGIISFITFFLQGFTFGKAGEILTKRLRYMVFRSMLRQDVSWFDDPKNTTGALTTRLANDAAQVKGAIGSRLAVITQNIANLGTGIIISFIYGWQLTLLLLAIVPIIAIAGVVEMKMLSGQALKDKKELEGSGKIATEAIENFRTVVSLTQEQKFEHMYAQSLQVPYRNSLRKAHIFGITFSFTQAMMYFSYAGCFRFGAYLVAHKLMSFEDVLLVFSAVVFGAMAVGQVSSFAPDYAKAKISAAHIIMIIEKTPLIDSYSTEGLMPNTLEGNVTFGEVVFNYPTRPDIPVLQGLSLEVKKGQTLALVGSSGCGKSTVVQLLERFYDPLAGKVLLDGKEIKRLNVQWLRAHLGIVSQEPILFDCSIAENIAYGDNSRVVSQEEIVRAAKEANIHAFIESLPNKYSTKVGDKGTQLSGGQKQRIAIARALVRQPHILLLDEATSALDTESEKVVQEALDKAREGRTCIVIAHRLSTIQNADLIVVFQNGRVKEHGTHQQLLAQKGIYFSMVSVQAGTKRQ

[15] = molecular target: T3, ATP-dependent translocase ABCB1; test: ABCB1 efflux inhibitor potency, dose response, Jurkat-DNR cells, JC-1, flow cytometry, set 2 (AID 504569); assay type: functional; conditions: read-out: EC50_MICROM_;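 also: potency of pump inhibitors that raise cellular JC-1 green fluorescence up to the nicardipine level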
[16] = HeLa cell cytotoxicity, dose response, cytotoxicity control for MgcRacGAP inhibitor project (AID 624300); assay type: functional
[17] = molecular target: T4, Rac GTPase-activating protein 1 (Homo sapiens, UniProt Q9H0H5); test: MgcRacGAP GTPase-activating activity inhibitors, confirmation, biochemical, ADP Hunter fluorescence, primary and confirmatory (AID 624330); assay type: functional
T4 sequence (Q9H0H5 whole entry): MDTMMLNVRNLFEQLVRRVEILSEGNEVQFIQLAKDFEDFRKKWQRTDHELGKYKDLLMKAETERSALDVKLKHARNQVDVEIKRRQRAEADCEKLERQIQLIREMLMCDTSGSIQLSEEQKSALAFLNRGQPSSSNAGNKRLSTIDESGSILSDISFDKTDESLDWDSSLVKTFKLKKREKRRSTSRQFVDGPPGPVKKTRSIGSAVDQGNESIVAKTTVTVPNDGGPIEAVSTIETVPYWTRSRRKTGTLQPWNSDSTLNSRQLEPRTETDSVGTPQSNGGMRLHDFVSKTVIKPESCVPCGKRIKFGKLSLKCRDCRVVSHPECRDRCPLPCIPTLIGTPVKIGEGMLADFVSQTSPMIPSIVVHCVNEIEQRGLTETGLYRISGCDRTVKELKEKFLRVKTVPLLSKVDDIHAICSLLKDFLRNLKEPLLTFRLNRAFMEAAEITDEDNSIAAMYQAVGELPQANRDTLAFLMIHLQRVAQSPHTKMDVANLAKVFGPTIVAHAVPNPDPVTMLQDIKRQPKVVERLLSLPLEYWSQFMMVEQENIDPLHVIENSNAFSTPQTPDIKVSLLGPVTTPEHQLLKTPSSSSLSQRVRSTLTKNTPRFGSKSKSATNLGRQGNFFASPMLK

Protein Wnt-3a = Protein Wnt-3a (Mus musculus, UniProt P27467); test: SAR analysis of small molecule antagonists of Gli-SUFU in a Wnt3a luminescent reporter assay.; assay type: functional
Protein Wnt-3a, sequence (P27467 whole entry): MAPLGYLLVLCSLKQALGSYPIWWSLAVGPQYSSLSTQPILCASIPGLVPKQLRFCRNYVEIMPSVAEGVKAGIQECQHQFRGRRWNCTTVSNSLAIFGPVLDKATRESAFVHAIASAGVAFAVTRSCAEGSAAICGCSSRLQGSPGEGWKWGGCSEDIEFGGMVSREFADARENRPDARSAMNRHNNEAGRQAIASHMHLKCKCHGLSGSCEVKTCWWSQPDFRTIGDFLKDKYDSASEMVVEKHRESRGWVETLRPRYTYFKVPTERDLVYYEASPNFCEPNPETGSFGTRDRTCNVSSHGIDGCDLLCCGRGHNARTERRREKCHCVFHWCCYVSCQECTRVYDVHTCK

Vero = test: Vero cell toxicity, dose response, cytotoxicity control, plate reader, cherry-pick samples (AID 687020); assay type: functional, cell-based; conditions: Chlorocebus sabaeus
[18] = molecular target: Dual specificity protein phosphatase 3 (Homo sapiens, UniProt P51452); test: VHR phosphatase inhibition, dose response, selectivity assay for STEP inhibitor project, biochemical (AID 602374); assay type: functional; conditions: read-out: IC50_Mean
Dual specificity protein phosphatase 3, sequence (P51452 whole entry): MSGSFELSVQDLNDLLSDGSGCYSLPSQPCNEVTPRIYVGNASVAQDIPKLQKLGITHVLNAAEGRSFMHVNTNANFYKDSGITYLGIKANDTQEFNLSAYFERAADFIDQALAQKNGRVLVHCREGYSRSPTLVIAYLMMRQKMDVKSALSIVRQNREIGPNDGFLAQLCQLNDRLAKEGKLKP

SUMO-activating enzyme [19] = molecular target: T5, SUMO-activating enzyme (Homo sapiens, UniProt Q9UBT2); test: inhibitors of in vitro SUMOylation cascade, primary screen, biochemical, HTRF, uHTS (AID 2006); assay type: protein-complex assay
T5 sequence (Q9UBE0 whole entry): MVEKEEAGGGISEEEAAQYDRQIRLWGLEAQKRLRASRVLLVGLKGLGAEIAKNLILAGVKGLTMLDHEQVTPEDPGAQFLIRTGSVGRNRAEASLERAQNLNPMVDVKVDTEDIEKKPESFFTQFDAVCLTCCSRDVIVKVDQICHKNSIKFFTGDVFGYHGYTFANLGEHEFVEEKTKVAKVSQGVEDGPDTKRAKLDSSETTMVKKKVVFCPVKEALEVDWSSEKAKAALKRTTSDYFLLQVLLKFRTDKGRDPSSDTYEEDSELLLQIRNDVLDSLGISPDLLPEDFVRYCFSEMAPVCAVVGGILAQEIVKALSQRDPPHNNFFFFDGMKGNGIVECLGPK
T5 sequence (Q9UBT2 whole entry): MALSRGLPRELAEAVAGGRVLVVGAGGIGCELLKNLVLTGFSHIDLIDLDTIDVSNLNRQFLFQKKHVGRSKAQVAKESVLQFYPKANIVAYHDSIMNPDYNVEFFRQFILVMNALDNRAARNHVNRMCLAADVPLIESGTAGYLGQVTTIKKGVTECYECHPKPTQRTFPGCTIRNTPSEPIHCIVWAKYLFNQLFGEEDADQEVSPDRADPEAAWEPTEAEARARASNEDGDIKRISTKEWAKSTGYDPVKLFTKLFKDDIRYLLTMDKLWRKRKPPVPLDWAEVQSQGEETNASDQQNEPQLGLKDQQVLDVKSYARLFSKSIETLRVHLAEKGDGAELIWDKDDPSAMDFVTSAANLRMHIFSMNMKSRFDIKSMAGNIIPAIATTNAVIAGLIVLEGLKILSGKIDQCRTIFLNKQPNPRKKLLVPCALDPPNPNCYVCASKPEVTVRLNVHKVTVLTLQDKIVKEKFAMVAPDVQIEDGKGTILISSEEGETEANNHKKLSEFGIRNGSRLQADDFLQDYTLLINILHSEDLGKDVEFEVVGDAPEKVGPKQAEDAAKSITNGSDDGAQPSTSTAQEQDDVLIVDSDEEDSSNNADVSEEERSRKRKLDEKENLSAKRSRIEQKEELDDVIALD

[20] = molecular target: T6, Voltage-gated N-type calcium channel alpha-1B subunit/Amyloid beta A4 precursor protein-binding family A member 1 (Homo sapiens, UniProt Q00975+Q02410); assay type: protein assay
[21] = molecular target: Tyrosine-protein phosphatase non-receptor type 22 (Homo sapiens, UniProt Q9Y2R2); test: PTPN22 phosphatase inhibition, dose response, selectivity assay for STEP inhibitor project, biochemical (AID 624241); assay type: functional
SUMO-activating enzyme [22] = molecular target: T5, SUMO-activating enzyme; test: SUMOylation inhibitor hit validation, confirmation, SUMOylation inhibitor project, biochemical, AlphaScreen (AID 2018); assay type: functional
[23] = molecular target: Tyrosine-protein phosphatase non-receptor type 5 (Homo sapiens, UniProt P54829); test: STEP phosphatase inhibitors, confirmation, biochemical, fluorescence intensity, uHTS hits (AID 602372); assay type: functional; conditions: read-out: IC50_Mean
Tyrosine-protein phosphatase non-receptor type 5, sequence (P54829 whole entry): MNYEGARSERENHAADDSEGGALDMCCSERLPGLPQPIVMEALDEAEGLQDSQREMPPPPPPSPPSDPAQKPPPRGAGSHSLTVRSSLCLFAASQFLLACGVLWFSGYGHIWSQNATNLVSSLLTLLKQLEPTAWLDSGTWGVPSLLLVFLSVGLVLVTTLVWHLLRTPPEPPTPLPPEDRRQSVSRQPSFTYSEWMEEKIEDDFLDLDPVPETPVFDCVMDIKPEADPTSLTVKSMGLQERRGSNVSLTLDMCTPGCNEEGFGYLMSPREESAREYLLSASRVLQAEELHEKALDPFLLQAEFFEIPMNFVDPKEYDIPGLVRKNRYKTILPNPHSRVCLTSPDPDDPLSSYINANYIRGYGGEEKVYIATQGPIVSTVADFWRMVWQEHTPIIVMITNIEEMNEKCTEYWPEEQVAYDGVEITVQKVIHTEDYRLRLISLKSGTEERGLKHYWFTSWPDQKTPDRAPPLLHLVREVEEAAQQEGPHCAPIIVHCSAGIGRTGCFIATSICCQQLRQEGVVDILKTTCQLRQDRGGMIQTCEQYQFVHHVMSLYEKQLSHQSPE

[24] = molecular target: Tyrosine-protein phosphatase non-receptor type 11 (Homo sapiens, UniProt Q06124); test: SHP2 phosphatase inhibition, dose response, selectivity assay for STEP inhibitor project, biochemical (AID 602367); assay type: functional; conditions: read-out: IC50_Mean
Tyrosine-protein phosphatase non-receptor type 11, sequence (Q06124 whole entry): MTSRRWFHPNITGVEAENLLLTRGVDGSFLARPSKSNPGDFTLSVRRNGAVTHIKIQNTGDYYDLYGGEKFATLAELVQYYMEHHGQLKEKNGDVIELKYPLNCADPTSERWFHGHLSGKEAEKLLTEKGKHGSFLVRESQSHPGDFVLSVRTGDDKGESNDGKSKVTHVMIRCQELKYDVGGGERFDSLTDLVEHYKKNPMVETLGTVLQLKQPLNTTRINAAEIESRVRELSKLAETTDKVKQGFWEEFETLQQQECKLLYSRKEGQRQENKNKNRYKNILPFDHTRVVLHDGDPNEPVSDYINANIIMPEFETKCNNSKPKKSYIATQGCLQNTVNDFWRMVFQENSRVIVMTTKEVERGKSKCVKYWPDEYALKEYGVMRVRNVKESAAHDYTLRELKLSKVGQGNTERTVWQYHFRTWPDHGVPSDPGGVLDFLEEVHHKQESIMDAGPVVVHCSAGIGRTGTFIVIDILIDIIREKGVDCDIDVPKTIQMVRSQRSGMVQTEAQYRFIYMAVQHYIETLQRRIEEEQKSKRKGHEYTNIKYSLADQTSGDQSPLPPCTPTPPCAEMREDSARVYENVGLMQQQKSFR

[25] = molecular target: T7, Small ubiquitin-related modifier 1 (Homo sapiens, UniProt P63165); test: inhibitors of SUMO1 peptide binding, dose response, biochemical, fluorescence polarization, uHTS hits (AID 624382); assay type: functional; conditions: read-out: IC50_Mean
T7 sequence (P63165 whole entry): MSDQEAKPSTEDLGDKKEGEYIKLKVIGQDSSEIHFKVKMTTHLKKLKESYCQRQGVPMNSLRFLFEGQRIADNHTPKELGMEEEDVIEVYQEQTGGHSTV

[26] = molecular target: T6, Voltage-gated N-type calcium channel alpha-1B subunit/Amyloid beta A4 precursor protein-binding family A member 1; assay type: protein assay; remark: listed apart in the source
[27] = molecular target: T7, Small ubiquitin-related modifier 1; test: inhibitors of SUMO1 partner interactions, dose response, biochemical, FRET (AID 624383); assay type: functional; conditions: read-out: IC50_Mean

C[C@@H]1CCCCO[C@H](CN(C)Cc2ccc(Cl)c(Cl)c2)[C@H](C)CN([C@@H](C)CO)C(=O)c2cc(NC(=O)c3ccccc3)ccc2O1
AC50 (A549): 31.5 µM (active)

C[C@H](CO)N1C[C@H](C)[C@H](CN(C)C(=O)Nc2ccc(F)cc2)OCCCC[C@H](C)Oc2ccc(NC(=O)C3CCCCC3)cc2C1=O
AC50 [1]: 1.82 µM (active) | AC50 [2]: 65.8 µM (active)

COc1ccc(Nc2nc(N3CCCC3)nc3ccccc23)c(OC)c1
EC50 [3]: 627 nM (active) | AC50 [4]: 35.6 µM (active) | AC50 [5]: 6.47 µM (active) | EC50 [6]: 1.2 µM (active) | EC50 [7]: 22.2 µM (active) | AC50 [8]: 63.3 µM (active) | EC50 [9]: 1.97 µM (active)

O=C(O)C1CCCCC1C(=O)NCCc1cccc(Cl)c1 (stereo not given)
EC50 [10]: 2.5 µM (active) | EC50 (cells [11]): > 29.9 µM (inactive) | IC50 (cells [12]): > 29.9 µM (inactive) | IC50 [13]: > 29.9 µM (inactive)

CC(=O)N1CCN(c2cc(-c3ccccc3)nc3cc(-c4cccc(Cl)c4)nn23)CC1
EC50 [14]: 5.55 µM (active) | EC50 [15]: 4.1 µM (active)

Cn1c(-c2ccc3c(c2)OCO3)cnc1NCc1ccccc1Cl
CC50 [16]: 100 µM (active) | IC50 [17]: 72 µM (active)

O=C(Nc1cc(N2CCCCC2)ncn1)c1ccc(C(F)(F)F)cc1
IC50 (Protein Wnt-3a): > 21.8 µM (inactive)

COC(=O)N1CCCCC1c1cc(C(=O)Nc2ccc(OC)cc2C)no1 (stereo not given)
AC50 (Vero): 34.5 µM (active)

CCCc1cc(=O)oc2cc(OCC(=O)Nc3ccc(S(N)(=O)=O)cc3)ccc12
IC50 [18]: 5.69 µM (active) | IC50 (SUMO-activating enzyme [19]): 11.5 µM (active) | IC50 [20]: > 50 µM (inactive) | IC50 [21]: 31 µM (inactive) | IC50 (SUMO-activating enzyme [22]): 6.11 µM (active) | IC50 [23]: 15.5 µM (active) | IC50 [24]: 1.15 µM (active) | IC50 [25]: > 66.6 µM (inactive) | IC50 [26]: 14.2 µM (active) | IC50 [27]: 6.44 µM (active)
